Data reported in patent publication US10821152B2, “Methods, agents and compositions for treatment of inflammatory conditions” (Betanien Hospital, priority 2014, dated 2020).
Where “and” joins values, the source holds several entries; their conditions need not be identical. Equal values may be shown once. Non-standard residues stand in square brackets, D forms with d. Residues, ends and D or L forms follow the SMILES beside them. *: point of attachment. dPhe(4-NHCONH2) = NC(=O)Nc1ccc(C[C@@H](N)C(=O)O)cc1; Dihydroorotyl(S) = O=C1C[C@@H](C(=O)*)NC(=O)N1; dPhe(4-Cl) = N[C@H](Cc1ccc(Cl)cc1)C(=O)O; Phe(4-NH2) = Nc1ccc(C[C@H](N)C(=O)O)cc1; d2Nal = N[C@H](Cc1ccc2ccccc2c1)C(=O)O; Lys(iPr) = CC(C)NCCCC[C@H](N)C(=O)O; d3Pal = N[C@H](Cc1cccnc1)C(=O)O

Tests used:
[1] = system: patient with ankylosing spondylitis; test: Treatment of ankylosing spondylitis patient (BASDAI, laboratory variables); format: in vivo, human; conditions: AS patient
Excerpt: Diagnosed with ankylosing spondylitis in 1984, HLAB27 positive, with repeated iridocyclitis. Used non-steroidal anti-inflammatory drugs previously. They were offered the TNF-alpha inhibitor Golilimumab in 2010. Their disease activity score was 8.9 in October 2010 (see below for explanation of disease activity score) on initiating Golilimumab; by the June 2012 this score had reduced to 6.6, but by May 2013 the effect had worn off and their score was 7.6. May 2013, they initiated Enbrel treatment, but their disease activity increased from 7.6 to 8.3. Due to their poor response to TNF-alpha therapy, they were offered the GnRH antagonist Degarelix in September 2014.
Disease activity in ankylosing spondylitis is measured by the BASDAI (Bath Ankylosing Spondylitis Disease Activity Index1), has been extensively validated in clinical trials, 2, 3 and is one of the most commonly used outcome measures in clinical trials. This is a componsite index that evaluates fatigue, axial and peripheral pain, stiffness and enthesopathy. Their BASDAI was at 8.7 at baseline. In September 2014 they received their first dose of Degarelix 240 mg sc. By 2 weeks, their BASDAI had reduced to 6.8, and by 6 weeks it had reduced to 5.8. This is the lowest BASDAI score they have ever had since we first started using this method of assessment 4 years ago in 2010. Their morning stiffness lasted 4 hours at baseline, by 6 weeks their morning stiffness had reduced to 2 hours. They had their second dose of Degarelix 80 mg s.c in October 2014. Lumbar flexion and maximum arm abduction were increased after 6 weeks of treatment.
Response to therapy in clinical practice is defined as improvement of 2 units or 50% on a 0-10 scale of the BASDAI, and expert opinion that the treatment should be continued. Their reduction by 6 weeks was 2.9 units, and 7.1 units with an 82% BASDAI score improvement by 9 weeks, and we shall continue treatment. A BASDAI 50% improvement is defined as a major clinical response. […] For comparison, approximately 50-60% of patients achieve a BASDAI 50 by 12 weeks on TNF inhibitors (4). Their ESR has decreased from 46 mm to 23 mm, which is their lowest ESR reading in 19 years. […] By 9 weeks of GnRH antagonist therapy, their kidney function has normalized, and fasting glucose reduced from 7.4 to 6.5 mmol/L. By 3 months, the effect on their ankylosing spondylitis remained, creatinine was at 98 umol/L, with a glomerular filtration rate of 66 ml/min/1.73 m2 in December 2014.

[2] = system: patient with systemic sclerosis; test: Treatment of systemic sclerosis; format: in vivo, human; conditions: SSc patient
Excerpt: • person, diagnosed with systemic sclerosis • Fulfilled the 2013 EULAR/ACR classification criteria for systemic sclerosisl. • Diagnosis based upon Raynauds phenomenon, positive ANA, high titre anti-Scl 70 antibodies, marked skin changes typical of scleroderma, and esophageal dysmotility. • Previously tried Cyclophosphamide and Mycophenolate Mofetil. • Progressive disease and worsening scleroderma skin features, despite therapy. • Rapid progressive cardiac disease, verified by biopsy.
Experimental Treatment • 5th December 2014 received first dose of Degarelix 240 mg sc. • 9th January 2015 received second dose of Degarelix 80 mg sc.
[…] They are important factors in patients' evaluations of quality of life2. Their precise objective evaluation can be included in randomized controlled trials3. Their pathogenesis is unclear. Histologically, there is a plug-like hyperkeratosis with parakeratosis, homogenized collagen fibers and perivascular mononuclear cell infiltration4.

CC(=O)N[C@H](Cc1ccc2ccccc2c1)C(=O)N[C@H](Cc1ccc(Cl)cc1)C(=O)N[C@H](Cc1cccnc1)C(=O)N[C@@H](CO)C(=O)N[C@@H](Cc1ccc(NC(=O)[C@@H]2CC(=O)NC(=O)N2)cc1)C(=O)N[C@H](Cc1ccc(NC(N)=O)cc1)C(=O)N[C@@H](CC(C)C)C(=O)N[C@@H](CCCCNC(C)C)C(=O)N1CCC[C@H]1C(=O)N[C@H](C)C(N)=O [Degarelix] (Ac-[d2Nal][dPhe(4-Cl)][d3Pal]S[Phe(4-NH2)](Dihydroorotyl(S))[dPhe(4-NHCONH2)]L[Lys(iPr)]P[dA]-NH2)
ASAS response (at least 80% improvement) [1]: achieved an ASAS 80
CRP ([1]; 10.09.14 (baseline)): <5
Creatinine (60-105 umol/L) ([1]; 10.09.14 (baseline)): 112↑ umol/L
ESR <20 mm ([1]; 10.09.14 (baseline)): 46 mm and 46↑ mm
Glomerular filtration rate (>60 ml/min/1.73 m^2) ([1]; 10.09.14 (baseline)): 56↓ ml/min/1.73 m^2
Glucose fasting (4.0-6.0 mmol/L) ([1]; 10.09.14 (baseline)): 7.4 mmol/L
Urate (230-480 umol/L) ([1]; 10.09.14 (baseline)): 515 umol/L and 515↑ umol/L
CRP ([1]; 10.11.14): <5
Creatinine (60-105 umol/L) ([1]; 10.11.14): 99 µmol/L
Glomerular filtration rate (>60 ml/min/1.73 m^2) ([1]; 10.11.14): 65 ml/min/1.73 m^2
Urate (230-480 umol/L) ([1]; 10.11.14): 426 µmol/L
Glucose fasting (4.0-6.0 mmol/L) ([1]; 10.11.14 (by 9 weeks)): 6.5 mmol/L
CRP ([1]; 24.09.14): <5
Creatinine (60-105 umol/L) ([1]; 24.09.14): 114↑ umol/L
ESR <20 mm ([1]; 24.09.14): 31↑ mm
Glomerular filtration rate (>60 ml/min/1.73 m^2) ([1]; 24.09.14): 55↓ ml/min/1.73 m^2
Urate (230-480 umol/L) ([1]; 24.09.14): 512↑ umol/L
CRP ([1]; 27.10.14): <5
Creatinine (60-105 umol/L) ([1]; 27.10.14): 111↑ umol/L
ESR <20 mm ([1]; 27.10.14): 28↑ mm
Glomerular filtration rate (>60 ml/min/1.73 m^2) ([1]; 27.10.14): 56↓ ml/min/1.73 m^2
Urate (230-480 umol/L) ([1]; 27.10.14): 495↑ umol/L
Lumbar flexion and maximum arm abduction ([1]; after 6 weeks of treatment): increased
BASDAI ([1]; baseline): 8.7
morning stiffness ([1]; baseline): 4 h
BASDAI ([1]; by 2 weeks): 6.8
creatinine ([1]; by 3 months (December 2014)): 98 µmol/L
glomerular filtration rate ([1]; by 3 months (December 2014)): 66 ml/min/1.73 m2
BASDAI ([1]; by 6 weeks): 5.8
BASDAI reduction ([1]; by 6 weeks): 2.9 units
morning stiffness ([1]; by 6 weeks): 2 h
BASDAI reduction ([1]; by 9 weeks): 7.1 units
BASDAI score improvement ([1]; by 9 weeks): 82%
kidney function ([1]; by 9 weeks): normalized
Digital tip ulcers/pitting scars ([2]; 5 weeks): 2
Modified Rodnan Skin Score ([2]; 5 weeks): 40
Sleep ([2]; 5 weeks): 5 hrs/night
VAS Fatigue ([2]; 5 weeks): 75
VAS Fingertip pain/pitting scars/ulcers ([2]; 5 weeks): 40
VAS Gastrointestinal Symptoms ([2]; 5 weeks): 80
VAS Global ([2]; 5 weeks): 40
VAS Lung/dyspnea ([2]; 5 weeks): 80
VAS Pain ([2]; 5 weeks): 10
VAS Raynauds/vascular ([2]; 5 weeks): 40
Digital tip ulcers/pitting scars ([2]; 6 weeks): 2
Modified Rodnan Skin Score ([2]; 6 weeks): 40
Sleep ([2]; 6 weeks): 5.5 hrs/night
VAS Fatigue ([2]; 6 weeks): 60
VAS Fingertip pain/pitting scars/ulcers ([2]; 6 weeks): 30
VAS Gastrointestinal Symptoms ([2]; 6 weeks): 60
VAS Global ([2]; 6 weeks): 40
VAS Lung/dyspnea ([2]; 6 weeks): 50
VAS Pain ([2]; 6 weeks): 10
VAS Raynauds/vascular ([2]; 6 weeks): 30
fingertip pain score (0-100 mm) ([2]; after 6 weeks of treatment (FIG. 12)): 30
Digital tip ulcers/pitting scars ([2]; baseline 5.12.14): 5
HAQ DI ([2]; baseline 5.12.14): 1.88
Modified Rodnan Skin Score ([2]; baseline 5.12.14): 42
Sleep ([2]; baseline 5.12.14): 2 hrs/night
VAS Fatigue ([2]; baseline 5.12.14): 100
VAS Fingertip pain/pitting scars/ulcers ([2]; baseline 5.12.14): 100
VAS Gastrointestinal Symptoms ([2]; baseline 5.12.14): 100
VAS Global ([2]; baseline 5.12.14): 100
VAS Lung/dyspnea ([2]; baseline 5.12.14): 100
VAS Pain ([2]; baseline 5.12.14): 100
VAS Raynauds/vascular ([2]; baseline 5.12.14): 100
fingertip pain score (0-100 mm) ([2]; baseline prior to treatment (FIG. 11)): 100 mm
